These results are taken from patent publication US8198284B2, “Treatment of neurodegenerative disorders with thiourea compounds” (National Health Research Institutes, priority 2008, dated 2012).

What all share (type): cell-based
For one assay, the system named is Microglia. Briefly: Enhancement of microglial Aβ clearance and phagocytosis in vitro. The note with it: n=6, p<0.001. How it is done:
Compounds were evaluated for their efficacy in enhancing microglial phagocytosis of Aβ (or Aβ clearance). […] Lipopolysaccharide (LPS) at 10 ng/mL was added as a positive control, which is known to increase Aβ uptake. The culture medium was subjected to Western blotting for evaluating residual Aβ left in the medium. The mean values of fluorescent intensity measured by flow cytometer were compared between cells pretreated with the test compound and the ones in non-treated controls.

In another assay the test system is COX-2. Briefly: Anti-inflammatory activity: LPS-induced COX-2 expression (Western blotting). The procedure:
(§1) Compounds were evaluated for their efficacy in suppressing microglial immune activation by measuring their potency against LPS-induced expression of iNOS and COX-2 and IL-6 secretion. Microglia and Raw 264.7 cells (a microglia-like cell line) were pretreated with a test compound at various doses for 1 hr followed by 24 hr treatment of LPS (10 ng/ml). Cell lysates were subjected to Western blotting for iNOS and COX-2 evaluation. IL-6 secretion was measured from resulting culture medium by ELISA.
In general terms: Immunoblotting shows a protein as a band on a membrane.

The subject of another assay is IL-6. In words: Anti-inflammatory activity: LPS-induced IL-6 secretion (ELISA). How it is done:
as §1
A general note: In an ELISA, binding on a coated surface is turned into a signal by an enzyme label.

The subject of another assay is iNOS. Briefly: Anti-inflammatory activity: LPS-induced iNOS expression (Western blotting). How it is done:
as §1

Assay [1] has as its system Hippocampal organotypic cultures. In words: Neuro-protection against LPS toxicity in hippocampal organotypic cultures. Conditions: pre-treatment, then LPS 10 ng/mL for 24 hr; Western blotting. How it is done: Compounds were evaluated for their efficacy in suppressing microglia-mediated neurotoxicity. Hippocampal organotypic cultures were established to serve as an ex vivo model for evaluation of hippocampal functions. Pre-treatment of the cultures with a test compound was followed by addition of LPS (10 ng/mL) for 24 hr. Hippocampal tissues were harvested and subjected to Western blotting for measuring synaptophysin and post synaptic density protein (PSD)95 levels, the indications for neuronal synatic functions.

Setting [2] is: dose dependent, β-actin unchanged.

For orientation: IC50 means the concentration needed to halve the response being measured. For `NC(=S)Nc1cccc(OCCCCCNC(=S)Nc2cccc3ccccc23)c1` [Compound 1, 1-naphthalen-1-yl-3-[5-(3-thioureido-phenoxy)-pentyl]-thiourea], the “increase of Aβ uptake as compared to the controls” value with Microglia (compound at 10 μM) is “approximately 29%”; in the assay with Microglia (compound at 20 μM) it was ~44%; with Microglia (compound at 50 μM) it was ~128%. Also, the IC50 with COX-2 (Mus musculus, RAW264.7, 1 hr pretreatment, then LPS 10 ng/ml for 24 hr, microglia and Raw 264.7 cells, read-out: Effective dose to show at least 50% suppression (IC50) for COX-2) is 50 µM; in the assay with IL-6 (1 hr pretreatment, then LPS 10 ng/ml for 24 hr, secretion by microglia, read-out: Effective dose to show at least 50% suppression (IC50) for IL-6) it was 20 µM; with iNOS (Mus musculus, RAW264.7, 1 hr pretreatment, then LPS 10 ng/ml for 24 hr, microglia and Raw 264.7 cells, read-out: Effective dose to show at least 50% suppression (IC50) for iNOS) it was 1 µM. In addition, the “LPS-induced COX-2 expression” value in the assay with COX-2 (setting [2]) is reported as “significant suppression”. Besides, the “LPS-induced IL-6 secretion by microglia” value with IL-6 (dose dependent) is recorded as “inhibited”. Besides, the “LPS-induced iNOS expression” value with iNOS (setting [2]) is on record as “significant suppression”. In assay [1], the “LPS-induced reduction of PSD95 level” value is given as “prevented LPS-induced reduction”. The “LPS-induced reduction of synaptophysin level” value in assay [1] is on record as “prevented LPS-induced reduction”.
